PubChem BioAssay (NCI)
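Five concentrations, 48 hours, 96-well plates. Here, GI50 denotes the concentration required for 50% inhibition of growth. Definition used: TGI = concentration required for complete inhibition of growth.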

Legend:
Test in all cases: inhibition of tumour cell growth, NCI panel, 48 h
[1] = test system: HOP-92 NSCLC
[2] = test system: SN12C renal
[3] = test system: HCT-15 colon
[4] = test system: M14 melanoma
[5] = test system: CAKI-1 renal
[6] = test system: T-47D breast
[7] = test system: UACC-257 melanoma
[8] = test system: BT-549 breast
[9] = test system: SK-MEL-28 melanoma
[10] = test system: IGROV1 ovarian
[11] = test system: TK-10 renal
[12] = test system: MDA-MB-231 breast
[13] = test system: NCI-H522 lung
[14] = test system: OVCAR-5 ovarian
[15] = test system: U251 CNS
[16] = test system: NCI/ADR-RES ovarian
[17] = test system: LOX IMVI melanoma
[18] = test system: 786-0 renal
[19] = test system: MALME-3M melanoma
[20] = test system: OVCAR-3 ovarian
[21] = test system: A498 renal
[22] = test system: OVCAR-4 ovarian
[23] = test system: HCT-116 colon
[24] = test system: HOP-62 NSCLC
[25] = test system: A549 NSCLC
[26] = test system: K-562 leukemia
[27] = test system: KM12 colon
[28] = test system: RPMI-8226 leukemia
[29] = test system: NCI-H226 lung
[30] = test system: NCI-H460 lung
[31] = test system: MDA-MB-435
[32] = test system: OVCAR-8 ovarian
[33] = test system: DU-145 prostate
[34] = test system: SF-268 CNS
[35] = test system: SNB-19 CNS
[36] = test system: UACC-62 melanoma
[37] = test system: SK-MEL-5 melanoma
[38] = test system: HT29 colon
[39] = test system: CCRF-CEM leukemia
[40] = test system: PC-3 prostate
[41] = test system: UO-31 renal
[42] = test system: SK-MEL-2 melanoma
[43] = test system: RXF 393 renal
[44] = test system: HS 578T breast
[45] = test system: SK-OV-3 ovarian
[46] = test system: SF-539 CNS
[47] = test system: HL-60(TB) leukemia
[48] = test system: COLO 205 colon
[49] = test system: HCC-2998 colon
[50] = test system: MOLT-4 leukemia
[51] = test system: MCF7 breast
[52] = test system: SW-620 colon
[53] = test system: SF-295 CNS
[54] = test system: EKVX NSCLC
[55] = test system: SNB-75 CNS
[56] = test system: ACHN renal
[57] = test system: NCI-H23 lung

O=C(Nc1n[nH]c2nc(-c3ccco3)ccc12)C1CC1
GI50 [1]: > 7.9 µM
TGI [1]: > 7.9 µM
GI50 [2]: > 25 µM
TGI [2]: > 25 µM
GI50 [3]: > 25 µM
TGI [3]: > 25 µM
GI50 [4]: > 25 µM
TGI [4]: > 25 µM
GI50 [5]: > 25 µM
TGI [5]: > 25 µM
GI50 [6]: > 25 µM
TGI [6]: > 25 µM
GI50 [7]: > 25 µM
TGI [7]: > 25 µM
GI50 [8]: > 25 µM
TGI [8]: > 25 µM
GI50 [9]: > 25 µM
TGI [9]: > 25 µM
GI50 [10]: > 25 µM
TGI [10]: > 25 µM
GI50 [11]: > 25 µM
TGI [11]: > 25 µM
GI50 [12]: > 25 µM
TGI [12]: > 25 µM
GI50 [13]: > 25 µM
TGI [13]: > 25 µM
GI50 [14]: > 25 µM
TGI [14]: > 25 µM
GI50 [15]: > 25 µM
TGI [15]: > 25 µM
GI50 [16]: > 25 µM
TGI [16]: > 25 µM
GI50 [17]: > 25 µM
TGI [17]: > 25 µM
GI50 [18]: > 25 µM
TGI [18]: > 25 µM
GI50 [19]: > 25 µM
TGI [19]: > 25 µM
GI50 [20]: > 25 µM
TGI [20]: > 25 µM
GI50 [21]: > 25 µM
TGI [21]: > 25 µM
GI50 [22]: > 25 µM
TGI [22]: > 25 µM
GI50 [23]: > 25 µM
TGI [23]: > 25 µM
GI50 [24]: > 25 µM
TGI [24]: > 25 µM
GI50 [25]: > 25 µM
TGI [25]: > 25 µM
GI50 [26]: > 25 µM
TGI [26]: > 25 µM
GI50 [27]: > 25 µM
TGI [27]: > 25 µM
GI50 [28]: > 25 µM
TGI [28]: > 25 µM
GI50 [29]: > 25 µM
TGI [29]: > 25 µM
GI50 [30]: > 25 µM
TGI [30]: > 25 µM
GI50 [31]: > 25 µM
TGI [31]: > 25 µM
GI50 [32]: > 25 µM
TGI [32]: > 25 µM
GI50 [33]: > 25 µM
TGI [33]: > 25 µM
GI50 [34]: > 25 µM
TGI [34]: > 25 µM
GI50 [35]: > 25 µM
TGI [35]: > 25 µM
GI50 [36]: > 25 µM
TGI [36]: > 25 µM
GI50 [37]: > 25 µM
TGI [37]: > 25 µM
GI50 [38]: > 25 µM
TGI [38]: > 25 µM
GI50 [39]: > 25 µM
TGI [39]: > 25 µM
GI50 [40]: > 25 µM
TGI [40]: > 25 µM
GI50 [41]: > 25 µM
TGI [41]: > 25 µM
GI50 [42]: > 25 µM
TGI [42]: > 25 µM
GI50 [43]: > 25 µM
TGI [43]: > 25 µM
GI50 [44]: > 25 µM
TGI [44]: > 25 µM
GI50 [45]: > 25 µM
TGI [45]: > 25 µM
GI50 [46]: > 25 µM
TGI [46]: > 25 µM
GI50 [47]: > 25 µM
TGI [47]: > 25 µM
GI50 [48]: > 25 µM
TGI [48]: > 25 µM
GI50 [49]: > 25 µM
TGI [49]: > 25 µM
GI50 [50]: > 25 µM
TGI [50]: > 25 µM
GI50 [51]: > 25 µM
TGI [51]: > 25 µM
GI50 [52]: > 25 µM
TGI [52]: > 25 µM
GI50 [53]: > 25 µM
TGI [53]: > 25 µM
GI50 [54]: > 25 µM
TGI [54]: > 25 µM
GI50 [55]: > 25 µM
TGI [55]: > 25 µM
GI50 [56]: > 25 µM
TGI [56]: > 25 µM
GI50 [57]: > 25 µM
TGI [57]: > 25 µM
